Experimental data taken from patent publication US20190002452A1 (GUANGZHOU HENOVCOM BIOSCIENCE CO., LTD, priority 2016, published 2019).

Biological target: T1, human farnesol receptor protein hFXR (Homo sapiens, UniProt Q96RI1)
T1 construct: hexahistidine (His6)
T1 sequence (Q96RI1 1-486): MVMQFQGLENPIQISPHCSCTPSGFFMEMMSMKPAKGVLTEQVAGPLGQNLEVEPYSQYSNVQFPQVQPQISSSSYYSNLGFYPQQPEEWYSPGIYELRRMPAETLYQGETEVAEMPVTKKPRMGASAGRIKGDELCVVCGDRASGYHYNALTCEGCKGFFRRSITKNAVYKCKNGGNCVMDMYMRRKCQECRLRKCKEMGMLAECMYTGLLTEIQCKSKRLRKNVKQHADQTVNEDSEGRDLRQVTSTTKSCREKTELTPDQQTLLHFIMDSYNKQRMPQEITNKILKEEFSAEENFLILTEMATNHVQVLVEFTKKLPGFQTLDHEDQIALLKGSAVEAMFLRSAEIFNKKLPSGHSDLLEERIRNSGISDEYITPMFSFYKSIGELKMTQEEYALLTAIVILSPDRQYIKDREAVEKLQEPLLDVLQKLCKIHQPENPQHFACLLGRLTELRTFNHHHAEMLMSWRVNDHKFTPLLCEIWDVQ
Assay: AlphaScreen assay of FXR agonist activity in vitro: effect on binding between human farnesol receptor protein and its coactivator (SRC1-2)
Type: biochemical
Details: hFXR 100 nM, peptide bSRC1-2 50 nM, 2 hr incubation at room temperature
Method: FXR agonist activity in vitro for the chemicals prepared in the above examples is measured.
AlphaScreen-based assays are performed with a hexahistidine detection kit manufactured by Perkins-Elmer, for measuring the effect of chemical compounds on the binding between human farnesol receptor protein and its coactivator (SRC1-2), the method is shown as follows:
1) Preparing a mixture comprising human farnesol receptor protein hFXR (100 nM, 15 μL/well), peptide bSRC1-2 (50 nM, 15 μL/well), 10× AlphaScreen buffer solution (15 μL/well and DI water (60 μL/well), and then transferring 105 μL/well of the mixture to a 96-well plate; 2) Diluting the chemicals prepared in the above examples by twice gradient 12×, with 15 μL/well; 3) Adding donor beads and acceptor beads, 30 μL/well in total; (attention: the beads are light-sensitive) 4) Incubating in dark at room temperature for 2 hr; 5) Transferring 40 μL/well of the mixture to a 384-well plate with 3 replicates, and then centrifuging at 1000 rpm for 1 min, to make liquid mixed well underneath the wells. (attention: photopathic operation); 6) In a dark room, reading the plate (by Homogeneous luminescent immunoassay system) to obtain EC50 with a GraphPad Prism5 software.

Row | Compound | EC50 [nM]
1 | O=C(O)c1cccc(N2CC3(CC(OCc4c(-c5c(Cl)cccc5Cl)noc4C4CC4)C3)C2)c1 [Example 9, 3-(6-((5-cyclopropyl-3-(2,6-dichlorophenyl)isoxazol-4-yl)methoxy)-2-azaspiro[3.3]heptan-2-yl)benzoic Acid] | 100 to 1000
2 | (S)-2-(2-((5-cyclopropyl-3-(2,6-dichlorophenyl)isoxazol-4-yl)methoxy)-7-(fluromethyl)-6-azaspiro[3.4]octan-6-yl)-4-methoxybenzo[d]thiazole-6-carboxylic Acid [Example 20] | 100 to 1000
3 | O=C(O)c1ccc2nc(N3CCC4(CC3)CC(OCc3c(-c5c(Cl)cccc5Cl)noc3C3CC3)C4)sc2c1 [Example 2, 2-(2((5-cyclopropyl-3-(2,6-dichlorophenyl)isoxazol-4-yl)methoxy)-7-azaspiro[3.5]nonan-7-yl)benzo[d]thiazole-6-carboxylic Acid] | < 100
4 | O=C(O)c1cccc(N2CCC3(CC(OCc4c(-c5c(Cl)cccc5Cl)noc4C4CC4)C3)C2)n1 (stereo not drawn) [Example 36, 6-(2-((5-cyclopropyl-3-(2,6-dichlorophenyl)isoxazol-4-yl)methoxy)-6-azaspiro[3.4]octan-6-yl)pyridine-2-carboxylic Acid] | 100 to 1000
5 | O=C(O)c1cccc(C(=O)N2CCC3(CC2)CC(OCc2c(-c4c(Cl)cccc4Cl)noc2C2CC2)C3)c1 [Example 1] | > 1000
6 | O=C(O)c1cccc(N2CCC3(CC(OCc4c(-c5c(Cl)cccc5Cl)noc4C4CC4)C3)C2)c1 (stereo not drawn) [Example 10, 3-(2-((5-cyclopropyl-3-(2,6-dichlorophenyl)isoxazol-4-yl)methoxy)-6-azaspiro[3.4]octan-6-yl)benzoic Acid] | 100 to 1000
7 | C[C@@H]1CC2(CC(OCc3c(-c4c(Cl)cccc4Cl)noc3C3CC3)C2)CN1c1nc2ccc(C(=O)O)cc2s1 (stereo partly drawn) [Example 15, (R)-2-(2-((5-cyclopropyl-3-(2,6-dichlorophenyl)isoxazol-4-yl)methoxy)-7-methyl-6-azaspiro[3.4]octan-6-yl) benzo[d]thiazole-6-carboxylic Acid] | 100 to 1000
8 | O=C(O)c1ccc2nc(N3CCC4(CC(OCc5c(-c6ccccc6C(F)(F)F)noc5C5CC5)C4)C3)oc2c1 (stereo not drawn) [Example 42, 2-(2-((5-cyclopropyl-3-(2-trifluoromethylphenyl)isoxazol-4-yl)methoxy)-6-azaspiro[3.4]octan-6-yl) benzo[d]oxazole-6-carboxylic Acid] | 100 to 1000
9 | 2-(5-((5-cyclopropyl-3-(2,6-dichlorophenyl)isoxazol-4-yl)methoxy)hexahydrocyclopenta[c]pyrrol-2(1H)-yl) benzo[d]thiazole-6-carboxylic Acid [Example 27] | > 1000
10 | O=C(O)c1ccc2nc(N3CC4(CC(OCc5c(-c6c(Cl)cccc6Cl)noc5C5CC5)C4)C[C@H]3CF)oc2c1 (stereo partly drawn) [Example 21, (S)-2-(2-((5-cyclopropyl-3-(2,6-dichlorophenyl)isoxazol-4-yl)methoxy)-7-(fluromethyl)-6-azaspiro[3.4]octan-6-yl) benzo[d]oxazole-6-carboxylic Acid] | 100 to 1000
11 | O=C(O)c1ccc2nc(N3CCC4(CC(OCc5c(-c6c(F)cccc6F)noc5C5CC5)C4)C3)oc2c1 (stereo not drawn) [Example 39, 2-(2-((5-cyclopropyl-3-(2,6-difluorophenyl)isoxazol-4-yl)methoxy)-6-azaspiro[3.4]octan-6-yl) benzo[d]oxazole-6-carboxylic Acid] | 100 to 1000
12 | O=C(O)c1cc(F)c2nc(N3CCC4(CC(OCc5c(-c6c(Cl)cccc6Cl)noc5C5CC5)C4)C3)sc2c1 (stereo not drawn) [Example 13, 2-(2-((5-cyclopropyl-3-(2,6-dichlorophenyl)isoxazol-4-yl)methoxy)-6-azaspiro[3.4]octan-6-yl)-4-flurobenzo[d]thiazole-6-carboxylic Acid] | 100 to 1000
13 | O=C(O)c1nsc2cc(N3CCC4(CC(OCc5c(-c6c(Cl)cccc6Cl)noc5C5CC5)C4)C3)ccc12 (stereo not drawn) [Example 31, 6-(2-((5-cyclopropyl-3-(2,6-dichlorophenyl)isoxazol-4-yl)methoxy)-6-azaspiro[3.4]octan-6-yl) benzo[d]isothiazole-3-carboxylic Acid] | < 100
14 | O=C(O)c1ccc2nc(N3CCC(COCc4c(-c5c(Cl)cccc5Cl)noc4C4CC4)CC3)sc2c1 [Example 48] | 100 to 1000
15 | O=C(O)c1ccc2nc(N3CCC4(CC(OCc5c(-c6c(Cl)cccc6Cl)noc5C5CC5)C4)C3)oc2c1 (stereo not drawn) [Example 14, 2-(2-((5-cyclopropyl-3-(2,6-dichlorophenyl)isoxazol-4-yl)methoxy)-6-azaspiro[3.4]octan-6-yl) benzo[d]oxazole-6-carboxylic Acid] | < 100
16 | COc1cc(C(=O)O)cc2sc(N3CCC4(CC(OCc5c(-c6c(Cl)cccc6Cl)noc5C5CC5)C4)C3)nc12 (stereo not drawn) [Example 12, 2-(2-((5-cyclopropyl-3-(2,6-dichlorophenyl)isoxazol-4-yl)methoxy)-6-azaspiro[3.4]octan-6-yl)-4-methoxybenzo[d]thiazole-6-carboxylic Acid] | 100 to 1000
17 | O=C(O)c1cccc(C(=O)N2CC3(CC(OCc4c(-c5c(Cl)cccc5Cl)noc4C4CC4)C3)C2)c1 [Example 3, 3-(6((5-cyclopropyl-3(2,6-dichlorophenyl)isoxazol-4-yl)methoxy)-2-azaspiro[3.3]heptan-2-carbonyl)benzoic Acid] | > 1000
18 | C[C@@H]1CC2(CC(OCc3c(-c4c(Cl)cccc4Cl)noc3C3CC3)C2)CN1c1nc2c(F)cc(C(=O)O)cc2s1 (stereo partly drawn) [Example 17] | 100 to 1000
19 | O=C(O)c1cccc(C(=O)N2CCC3(CC(OCc4c(-c5c(Cl)cccc5Cl)noc4C4CC4)C3)C2)c1 (stereo not drawn) [Example 7, 3-(2-((5-cyclopropyl-3-(2,6-dichlorophenyl)isoxazol-4-yl)methoxy)-6-azaspiro[3.4]octan-6-carbonyl)benzoic Acid] | < 100
20 | O=C(O)c1ccc(N2CCC3(CC(OCc4c(-c5c(Cl)cccc5Cl)noc4C4CC4)C3)C2)nn1 (stereo not drawn) [Example 46, 6-(2-((5-cyclopropyl-3-(2,6-dichlorophenyl)isoxazol-4-yl)methoxy)-6-azaspiro[3.4]octan-6-yl) pyridazine-3-carboxylic Acid] | < 100
21 | O=C(O)c1ccc2nc(N3CCc4cc(OCc5c(-c6c(Cl)cccc6Cl)noc5C5CC5)ccc4C3)sc2c1 [Example 23, 2-(6-((5-cyclopropyl-3-(2,6-dichlorophenyl)isoxazol-4-yl)methoxy)-3,4-dihydroisoquinolin-2 (1H)-yl) benzo[d]thiazole-6-carboxylic Acid] | < 100
22 | O=C(O)c1ccc2nc(N3CCc4cc(OCc5c(-c6c(F)cccc6F)noc5C5CC5)ccc4C3)sc2c1 [Example 40, 2-(6-((5-cyclopropyl-3-(2,6-difluorophenyl)isoxazol-4-yl)methoxy)-3,4-dihydroisoquinolin-2(1H)-yl) benzo[d]thiazole-6-carboxylic Acid] | < 100
23 | O=C(O)c1ccc2nc(N3CC4CCCC(C3)C4OCc3c(-c4c(Cl)cccc4Cl)noc3C3CC3)sc2c1 (stereo not drawn) [Example 28, 2-(9-((5-cyclopropyl-3-(2,6-dichlorophenyl)isoxazol-4-yl)methoxy)-3-azazbicyclo[3.3.1]nonan-3-yl) benzo[d]thiazole-6-carboxylic Acid] | < 100
24 | O=C(O)c1ccc2nc(N3Cc4ccc(OCc5c(-c6c(Cl)cccc6Cl)noc5C5CC5)cc4C3)sc2c1 [Example 22, 2-(5-((5-cyclopropyl-3-(2,6-dichlorophenyl)isoxazol-4-yl)methoxy)isoindolin-2-yl) benzo[d]thiazole-6-carboxylic Acid] | < 100
